Here are results for twelve compounds from ChEMBL document CHEMBL1201862, “PubChem BioAssay data set” (2004).

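Grown in 96-well plates, cells were treated for 48 hours with each compound at five concentrations. Insufficient inhibition: endpoint recorded as highest concentration tested. GI50 is the concentration that inhibits growth by half.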 Calls of active or inactive are those of the source. Cut-off read from the data, not from the text of the source: active = GI50 up to about 1.1 µM and inactive = higher. Bounds are passed on as bounds.

Common to all, as to assay: growth of human tumour cells (NCI), 48 h
Assay [1] deals with SNB-19.
Assay [2] has as its system M19-MEL.
Assay [3] deals with SF-295.
Assay [4] has as its system OVCAR-4.
Assay [5] has as its system Malme-3M.
The subject of assay [6] is COLO 205.
For assay [7], the system named is SK-MEL-28.
Assay [8] concerns OVCAR-5.
The test system of assay [9] is HCT-116.
The subject of assay [10] is HCC 2998.
Assay [11] has as its system KM-20L2.
For assay [12], the system named is LXFL 529.
Assay [13] deals with UACC-257.
The subject of assay [14] is OVCAR-8.
The test system of assay [15] is NCI-H226.
Assay [16] has as its system HL-60.
The subject of assay [17] is NCI-H460.
Assay [18] deals with EKVX.
In assay [19] the test system is DMS-114.
In assay [20] the test system is MDA-N.

`COC(=O)C1=C(C(=O)OC)C23CC4CCC2(C(=O)C1O3)C4(C)C` (centres undefined): the GI50 in assay [1] was > 100 µM (inactive); in assay [2], > 100 µM (inactive); in assay [3], 95.1 µM (inactive); in [4], > 100 µM (inactive); in assay [5], > 100 µM (inactive); in [6] it was > 100 µM (inactive). The GI50 is > 100 µM (inactive) in [7]; > 100 µM (inactive) in [8]; 51.8 µM (inactive) in assay [9]; > 100 µM (inactive) in assay [10]; > 100 µM (inactive) in assay [11]; > 100 µM (inactive) in assay [12]. Besides, the GI50 in assay [13] is > 100 µM (inactive); in assay [14] it was > 100 µM (inactive); in [15], > 100 µM (inactive); in assay [16], 21.2 µM (inactive); in assay [17], > 100 µM (inactive).
Turning to `O=C(COC(=O)c1cccc2c(=O)c3ccccc3[nH]c12)Nc1ccc(C(=O)O)cc1`, the GI50 in [1], in assay [2], in assay [3], in assay [18], in [4] and in [5] was > 100 µM (inactive) in each case. In addition, the GI50 was > 100 µM (inactive) in assay [6]; > 100 µM (inactive) in assay [7]; 61.8 µM (inactive) in assay [19]; 84.7 µM (inactive) in [9]; > 100 µM (inactive) in [10]; > 100 µM (inactive) in assay [11]. The GI50 is > 100 µM (inactive) in [13]; 78.7 µM (inactive) in assay [14]; > 10 µM (inactive) in assay [15]; 94 µM (inactive) in assay [16]; > 100 µM (inactive) in assay [17].
Turning to `O[C@]12c3ccccc3C1CCCCC2N1CCOCC1` (some centres undefined), the GI50 in [1], in assay [2], in assay [3], in assay [18], in assay [4] and in assay [5] was > 100 µM (inactive) each time. The GI50 in assay [6], in [7], in [19], in assay [9], in [11] and in [12] was > 100 µM (inactive) each time. In addition, the GI50 in assay [13], in [14], in assay [15], in [16] and in assay [17] was > 100 µM (inactive) throughout.
For `COC1=C(OC)C(=O)c2cc(SC)c(=O)c(SC)cc2C1=O`, the GI50 in assay [1] was 22.6 µM (inactive); in [3], 15.7 µM (inactive); in assay [18], 21.2 µM (inactive); in [4] it was 12.2 µM (inactive); in [6], > 100 µM (inactive); in [7] it was 13.5 µM (inactive). In addition, the GI50 was 3.4 µM (inactive) in assay [19]; 20 µM (inactive) in assay [9]; > 100 µM (inactive) in assay [10]; > 100 µM (inactive) in assay [11]; 15.8 µM (inactive) in assay [12]; 6.65 µM (inactive) in assay [13]. For the same compound, the GI50 was 12.1 µM (inactive) in assay [14], 13.5 µM (inactive) in assay [15], 1.68 µM (inactive) in assay [16] and 45.5 µM (inactive) in [17].
Consider `CCOC(OCC)C(CC)[Se]c1ccccc1[N+](=O)[O-]` (centres undefined), for which the GI50 was 3.75 µM (inactive) in assay [1]; 4.42 µM (inactive) in assay [2]; 2.32 µM (inactive) in assay [3]; 5.7 µM (inactive) in [18]; > 55.5 µM (inactive) in assay [4]; 7.28 µM (inactive) in assay [5]. In addition, the GI50 was 2.48 µM (inactive) in assay [6]; 10.5 µM (inactive) in assay [7]; 6.35 µM (inactive) in [8]; 3.6 µM (inactive) in [9]; 1.56 µM (inactive) in [10]; 1.96 µM (inactive) in assay [11]. In addition, the GI50 in [12] was 4.39 µM (inactive); in [13] it was 8.83 µM (inactive); in assay [14], 4.48 µM (inactive); in assay [15], 7.96 µM (inactive); in assay [20], 0.352 µM (active); in assay [16], 0.418 µM (active). The GI50 in assay [17] is 2.81 µM (inactive).
Take `Cc1ccc(S(=O)(=O)N/N=C/c2oc(-c3cccc([N+](=O)[O-])c3)c(-c3cccc([N+](=O)[O-])c3)c2[N+](=O)[O-])cc1`: the GI50 in assay [1] is 67.1 µM (inactive); in [3] it was 49.8 µM (inactive); in [18], > 100 µM (inactive); in [4], > 100 µM (inactive); in assay [5], > 100 µM (inactive); in assay [6], > 100 µM (inactive). For the same compound, the GI50 in assay [7] is 51.6 µM (inactive); in assay [8] it was > 100 µM (inactive); in assay [9], 32.4 µM (inactive); in assay [10], > 100 µM (inactive); in assay [11] it was > 100 µM (inactive); in assay [12], 36.7 µM (inactive). For the same compound, the GI50 in assay [13] is 64.7 µM (inactive); in assay [14], 70.6 µM (inactive); in assay [15], > 100 µM (inactive); in assay [16], 25.4 µM (inactive); in assay [17], > 100 µM (inactive).
Turning to `COC(=O)C1CC2(CC3=C1CCCC3)OCCO2` (centres undefined), the GI50 in assay [1], in assay [2], in [3], in assay [18], in [4] and in assay [5] was > 100 µM (inactive) throughout. Further, the GI50 in [6], in assay [7], in [19], in assay [9], in assay [10] and in [12] was > 100 µM (inactive) in each case. In addition, the GI50 in assay [13], in [14], in assay [16] and in [17] was > 100 µM (inactive) throughout.
Turning to `O=C1Oc2cc3c(c4cccc1c24)OCN(c1ccc(Cl)cc1)C3`, the GI50 in [1] is 47.8 µM (inactive); in [2], 14.4 µM (inactive); in assay [3], 48 µM (inactive); in [18] it was > 58.2 µM (inactive); in [4], 28.1 µM (inactive); in [5], 26.4 µM (inactive). In addition, the GI50 in assay [6] is 7.82 µM (inactive); in [7], > 49.2 µM (inactive); in assay [19], 5.9 µM (inactive); in assay [8] it was > 35.8 µM (inactive); in [9], 11.3 µM (inactive); in assay [10], 27.4 µM (inactive). The GI50 was 0.622 µM (active) in [12]; 34.9 µM (inactive) in assay [13]; 11.7 µM (inactive) in assay [14]; > 100 µM (inactive) in assay [15]; 4.82 µM (inactive) in [16]; 2.31 µM (inactive) in [17].
`CN(C)CC/C(=N\Nc1ccc([N+](=O)[O-])cc1)c1ccccc1`: the GI50 in assay [1] is 15 µM (inactive); in assay [3] it was 11.5 µM (inactive); in assay [18], 14.3 µM (inactive); in [4] it was 18.3 µM (inactive); in assay [5] it was 19.4 µM (inactive); in assay [6], 14.9 µM (inactive). In addition, the GI50 in assay [7] was 12.7 µM (inactive); in assay [19], 5.14 µM (inactive); in assay [8], 15 µM (inactive); in assay [9], 11.7 µM (inactive); in assay [11], 4.33 µM (inactive); in assay [12] it was 5.83 µM (inactive). Moreover, the GI50 in [13] is 16.8 µM (inactive); in assay [14], 14 µM (inactive); in assay [16] it was 3.61 µM (inactive); in [17], 9.48 µM (inactive).
As for `On1c(-c2ccccc2)c(-c2c(-c3ccccc3)n(O)c3ccccc23)c2ccccc21`, the GI50 in [1] is 67.5 µM (inactive); in assay [2] it was 11.2 µM (inactive); in assay [3], 22.1 µM (inactive); in [4], 52.1 µM (inactive); in [5], 32.3 µM (inactive); in assay [7], 61.9 µM (inactive). Further, the GI50 in [19] is 24.7 µM (inactive); in [9], 48.5 µM (inactive); in [12] it was 3.18 µM (inactive); in assay [13] it was 26.5 µM (inactive); in assay [14], 26.1 µM (inactive); in [15], 17.7 µM (inactive). For the same compound, the GI50 in assay [16] was 32.7 µM (inactive); in [17] it was 23.4 µM (inactive).
Turning to `N#CC(NNC(=O)c1ccccc1O)c1ccccc1` (centres undefined), the GI50 in [2] was 1.32 µM (inactive); in assay [3], 2.89 µM (inactive); in assay [4], 3.85 µM (inactive); in [5], 4.75 µM (inactive); in assay [6], 33.7 µM (inactive); in [7], > 100 µM (inactive). The GI50 is 0.721 µM (active) in assay [19]; 22.1 µM (inactive) in assay [8]; 0.577 µM (active) in assay [9]; 22 µM (inactive) in [11]; 0.652 µM (active) in [12]; 5.94 µM (inactive) in [13]. For the same compound, the GI50 in assay [14] is 2.81 µM (inactive); in assay [15], 5.87 µM (inactive); in [16] it was 1.8 µM (inactive); in assay [17], 0.646 µM (active).
With `O=c1cc2n(c(=O)[nH]1)C1OC(C(O)C1O)[C@@H]2CCO` (some centres undefined), the GI50 in assay [1], in [2], in assay [3], in [18], in assay [4] and in assay [5] was > 100 µM (inactive) in each case. Further, the GI50 in [7], in [19], in [8], in [11], in assay [12] and in assay [13] was > 100 µM (inactive) throughout. Moreover, the GI50 in assay [14] is > 100 µM (inactive); in assay [15], > 10 µM (inactive); in [16] it was > 100 µM (inactive); in assay [17], > 100 µM (inactive).
